Data as given in the NIST ThermoML archive (doi:10.1021/je060355j).

Tests used:
[1] = excess molar enthalpy (molar enthalpy of mixing); xn = mol fraction of the nth substance listed; details: 101.32 kPa, Liquid
[2] = xn = mol fraction of the nth substance listed; details: 101.32 kPa, Liquid

CCCCOC=O [butyl methanoate] + CCCCCC
Details | excess molar enthalpy [kcal/mol] | mass density [kg/m3]
[1], 291.15 K, x1 = 0.0865 | 0.0769 | –
[1], 291.15 K, x1 = 0.1588 | 0.134 | –
[1], 291.15 K, x1 = 0.2303 | 0.183 | –
[1], 291.15 K, x1 = 0.2973 | 0.216 | –
[1], 291.15 K, x1 = 0.3551 | 0.237 | –
[1], 291.15 K, x1 = 0.4081 | 0.248 | –
[1], 291.15 K, x1 = 0.454 | 0.253 | –
[1], 291.15 K, x1 = 0.5114 | 0.251 | –
[1], 291.15 K, x1 = 0.5606 | 0.243 | –
[1], 291.15 K, x1 = 0.6177 | 0.228 | –
[1], 291.15 K, x1 = 0.6775 | 0.205 | –
[1], 291.15 K, x1 = 0.7406 | 0.176 | –
[1], 291.15 K, x1 = 0.8067 | 0.14 | –
[1], 291.15 K, x1 = 0.873 | 0.0959 | –
[1], 291.15 K, x1 = 0.94 | 0.0509 | –
[1], 318.15 K, x1 = 0.0808 | 0.105 | –
[1], 318.15 K, x1 = 0.1626 | 0.168 | –
[1], 318.15 K, x1 = 0.2415 | 0.217 | –
[1], 318.15 K, x1 = 0.311 | 0.248 | –
[1], 318.15 K, x1 = 0.3823 | 0.268 | –
[1], 318.15 K, x1 = 0.4464 | 0.275 | –
[1], 318.15 K, x1 = 0.4882 | 0.274 | –
[1], 318.15 K, x1 = 0.5104 | 0.275 | –
[1], 318.15 K, x1 = 0.5661 | 0.266 | –
[1], 318.15 K, x1 = 0.63 | 0.25 | –
[1], 318.15 K, x1 = 0.7075 | 0.219 | –
[1], 318.15 K, x1 = 0.7904 | 0.175 | –
[1], 318.15 K, x1 = 0.868 | 0.121 | –
[1], 318.15 K, x1 = 0.9412 | 0.0645 | –
[2], 291.15 K, x1 = 0.0445 | – | 669.6
[2], 291.15 K, x1 = 0.09 | – | 678.6
[2], 291.15 K, x1 = 0.1461 | – | 689.8
[2], 291.15 K, x1 = 0.1928 | – | 699.5
[2], 291.15 K, x1 = 0.249 | – | 711.4
[2], 291.15 K, x1 = 0.3018 | – | 722.7
[2], 291.15 K, x1 = 0.4025 | – | 745.2
[2], 291.15 K, x1 = 0.5021 | – | 768.3
[2], 291.15 K, x1 = 0.5957 | – | 790.7
[2], 291.15 K, x1 = 0.6963 | – | 815.7
[2], 291.15 K, x1 = 0.7541 | – | 830.4
[2], 291.15 K, x1 = 0.802 | – | 842.7
[2], 291.15 K, x1 = 0.8532 | – | 856.1
[2], 291.15 K, x1 = 0.8987 | – | 868.2
[2], 291.15 K, x1 = 0.9575 | – | 884.3
[2], 291.15 K, x1 = 1 | – | 896
[2], 298.15 K, x1 = 0.0729 | – | 669.39
[2], 298.15 K, x1 = 0.1321 | – | 681.03
[2], 298.15 K, x1 = 0.1967 | – | 694.2
[2], 298.15 K, x1 = 0.2658 | – | 708.76
[2], 298.15 K, x1 = 0.336 | – | 723.94
[2], 298.15 K, x1 = 0.3698 | – | 731.4
[2], 298.15 K, x1 = 0.4886 | – | 758.31
[2], 298.15 K, x1 = 0.5876 | – | 781.81
[2], 298.15 K, x1 = 0.6855 | – | 805.81
[2], 298.15 K, x1 = 0.7677 | – | 826.55
[2], 298.15 K, x1 = 0.8136 | – | 838.26
[2], 298.15 K, x1 = 0.8574 | – | 849.77
[2], 298.15 K, x1 = 0.8986 | – | 860.63
[2], 298.15 K, x1 = 0.9227 | – | 867.09
[2], 298.15 K, x1 = 0.9714 | – | 880.08
[2], 298.15 K, x1 = 1 | – | 888.66
[2], 308.15 K, x1 = 0.047 | – | 654.6
[2], 308.15 K, x1 = 0.1095 | – | 666.7
[2], 308.15 K, x1 = 0.1485 | – | 674.6
[2], 308.15 K, x1 = 0.2005 | – | 685.2
[2], 308.15 K, x1 = 0.2579 | – | 697.2
[2], 308.15 K, x1 = 0.2981 | – | 705.7
[2], 308.15 K, x1 = 0.4033 | – | 728.8
[2], 308.15 K, x1 = 0.5098 | – | 753.1
[2], 308.15 K, x1 = 0.6081 | – | 776.4
[2], 308.15 K, x1 = 0.7112 | – | 801.8
[2], 308.15 K, x1 = 0.7576 | – | 813.5
[2], 308.15 K, x1 = 0.8073 | – | 826.3
[2], 308.15 K, x1 = 0.8511 | – | 837.7
[2], 308.15 K, x1 = 0.9081 | – | 852.9
[2], 308.15 K, x1 = 0.9598 | – | 867.3
[2], 308.15 K, x1 = 1 | – | 878.24
[2], 318.15 K, x1 = 0.0493 | – | 645.6
[2], 318.15 K, x1 = 0.0857 | – | 652.7
[2], 318.15 K, x1 = 0.1192 | – | 659.1
[2], 318.15 K, x1 = 0.1589 | – | 666.9
[2], 318.15 K, x1 = 0.1975 | – | 674.7
[2], 318.15 K, x1 = 0.2452 | – | 684.5
[2], 318.15 K, x1 = 0.3006 | – | 696.2
[2], 318.15 K, x1 = 0.4015 | – | 718
[2], 318.15 K, x1 = 0.495 | – | 739.2
[2], 318.15 K, x1 = 0.5929 | – | 762.2
[2], 318.15 K, x1 = 0.705 | – | 789.5
[2], 318.15 K, x1 = 0.746 | – | 799.7
[2], 318.15 K, x1 = 0.8134 | – | 817.05
[2], 318.15 K, x1 = 0.9067 | – | 841.5
[2], 318.15 K, x1 = 0.9647 | – | 857.1
[2], 318.15 K, x1 = 1 | – | 867.21
